Data from patent publication US11312712B2, “Azabenzimidazoles and their use as AMPA receptor modulators” (Janssen Pharmaceutica NV, priority 2015, dated 2022).

Molecular target: GluA1o-γ8 (GRIA1o-CACNG8 fusion construct) (Homo sapiens (Human), UniProt P42261+Q8WXS5)
Assay: Calcium flux assay (FLIPR), inhibition of TARP γ8 dependent AMPA receptor activity
Type: cell-based
Settings: GluA1o-γ8 (GRIA1o-CACNG8 fusion) in HEK293 cells, calcium flux after 15 μM glutamate
Source text: This assay was used to test compounds for their ability to inhibit TARP γ8 dependent AMPA receptor activity. The AMPA receptor is a non-selective cation channel activated by glutamate. Ionotropic glutamate receptors normally desensitize too rapidly to allow detectable calcium influx in a FLIPR assay (Strange et al. (2006). “Functional characterisation of homomeric ionotropic glutamate receptors GluR1-GluR6 in a fluorescence-based high throughput screening assay.” Comb Chem High Throughput Screen 9(2): 147-158). But, this desensitization is incomplete, and a substantial steady-state current remains in the sustained presence of glutamate (Cho et al. (2007). “Two families of TARP isoforms that have distinct effects on the kinetic properties of AMPA receptors and synaptic currents.” Neuron 55(6): 890-904).
An in vitro assay was used to determine the potency of test compounds as inhibitors of the glutamate response of the channel formed by GluA1o-γ8. To ensure a 1:1 stoichiometry of GluA1o and γ8 subunits in the expressed channel, a fusion of the cDNAs for GRIA1o and CACNG8 was used. Following Shi et al (2009) “The stoichiometry of AMPA receptors and TARPs varies by neuronal cell type.” Neuron 62(5): 633-640), the C-terminus of the cDNA for GRIA1o was fused to the N-terminus of the cDNA for γ8. The linker sequence was QQQQQQQQQQEFAT. Channels expressed with this construct appear to have similar properties to channels formed by co-expression of GRIA1o with an excess of CACNG8 (Shi et al. 2009). A clonal cell line in HEK293 cells stably expressing this construct, with a geneticin selection marker, was generated for use in this assay.
Cell expressing the GRIA1o-CACNG8 fusion construct were grown in a monolayer in 96- or 384-well microtiter plates. They were washed with assay buffer (135 mM NaCl, 4 mM KCl, 3 mM CaCl2, 1 mM MgCl2, 5 mM glucose, 10 mM HEPES, pH 7.4, 300 mOs) using a Biotek EL405 plate washer. The cells were then loaded with a calcium-sensitive dye (Calcium-5 or Calcium-6, Molecular Devices) and the test compounds at a range of concentrations. Calcium flux following the addition of 15 μM glutamate was monitored using a Molecular Devices FLIPR Tetra. The fluorescence in each well was normalized to the fluorescence of negative and positive control wells. The negative control wells had no added compounds, and the positive control wells had been incubated with 10 μM CP465022 (a non-subtype-selective AMPA receptor antagonist) (Lazzaro et al. (2002). “Functional characterization of CP-465,022, a selective, noncompetitive AMPA receptor antagonist.” Neuropharmacology 42(2): 143-153). The responses to glutamate as functions of the test compound concentrations were fitted to a four-parameter logistic function. The fitted parameter corresponding to the midpoint was taken to be the potency of inhibition of the compound. The data in Table 4 below illustrates the observed potentcy for the compounds described herein. pIC50 refers to the negative log of the IC50 in molar.

Sequence of GluA1o-γ8 (GRIA1o-CACNG8 fusion construct) (P42261 other isoform, or with tags, fused parts or gaps): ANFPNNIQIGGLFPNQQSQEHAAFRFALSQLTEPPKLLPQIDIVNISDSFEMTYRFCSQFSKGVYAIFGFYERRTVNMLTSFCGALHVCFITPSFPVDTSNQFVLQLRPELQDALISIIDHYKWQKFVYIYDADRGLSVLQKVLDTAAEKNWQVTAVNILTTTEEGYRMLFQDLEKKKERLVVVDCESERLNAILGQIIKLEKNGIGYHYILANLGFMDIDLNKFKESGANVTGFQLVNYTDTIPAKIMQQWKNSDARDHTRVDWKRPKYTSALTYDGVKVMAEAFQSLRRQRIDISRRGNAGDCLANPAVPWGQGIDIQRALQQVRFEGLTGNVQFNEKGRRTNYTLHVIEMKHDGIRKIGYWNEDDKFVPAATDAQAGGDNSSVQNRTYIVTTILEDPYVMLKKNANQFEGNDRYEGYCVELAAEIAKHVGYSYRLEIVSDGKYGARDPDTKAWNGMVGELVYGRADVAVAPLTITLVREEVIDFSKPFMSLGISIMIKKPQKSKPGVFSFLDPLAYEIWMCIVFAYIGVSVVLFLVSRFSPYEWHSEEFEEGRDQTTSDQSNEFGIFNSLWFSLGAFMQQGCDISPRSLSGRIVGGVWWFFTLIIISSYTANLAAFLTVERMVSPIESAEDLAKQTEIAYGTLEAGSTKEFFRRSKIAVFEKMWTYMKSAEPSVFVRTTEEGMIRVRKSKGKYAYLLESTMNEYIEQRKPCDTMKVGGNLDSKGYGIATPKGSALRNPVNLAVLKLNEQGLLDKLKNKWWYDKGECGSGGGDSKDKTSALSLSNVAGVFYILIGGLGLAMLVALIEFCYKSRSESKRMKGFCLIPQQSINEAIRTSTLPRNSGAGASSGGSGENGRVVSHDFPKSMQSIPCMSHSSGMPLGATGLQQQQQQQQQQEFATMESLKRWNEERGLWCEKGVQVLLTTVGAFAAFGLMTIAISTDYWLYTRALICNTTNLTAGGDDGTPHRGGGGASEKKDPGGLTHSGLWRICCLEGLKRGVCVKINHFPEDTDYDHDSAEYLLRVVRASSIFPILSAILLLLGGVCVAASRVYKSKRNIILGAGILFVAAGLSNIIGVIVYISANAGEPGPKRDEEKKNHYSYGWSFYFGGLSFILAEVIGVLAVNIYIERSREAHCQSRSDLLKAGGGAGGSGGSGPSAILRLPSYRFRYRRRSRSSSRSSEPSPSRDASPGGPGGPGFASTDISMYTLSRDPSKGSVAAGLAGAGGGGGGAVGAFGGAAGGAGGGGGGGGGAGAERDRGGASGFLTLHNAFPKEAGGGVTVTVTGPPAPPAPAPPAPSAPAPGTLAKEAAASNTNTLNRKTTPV

Point of comparison: O=c1[nH]c2ccc(-n3c(-c4ccc(F)cc4)nc4ccc(Cl)nc43)cc2s1 [Example 30, 6-[5-Chloro-2-(4-fluorophenyl)imidazo[4,5-b]pyridin-3-yl]-3H-1,3-benzothiazol-2-one], IC50 0.2 nM. Against it:
- O=c1[nH]c2ccc(-n3c(-c4ccnc(F)c4)nc4ccc(C(F)(F)F)nc43)cc2s1 [Example 31, 6-[2-(2-Fluoro-4-pyridyl)-5-(trifluoromethyl)imidazo[4,5-b]pyridin-3-yl]-3H-1,3-benzothiazol-2-one] — within 1.5-fold, 0.251 nM
- O=c1[nH]c2ccc(-n3c(-c4ccccc4)nc4ccc(Br)nc43)cc2s1 [Example 32, 6-(5-Bromo-2-phenyl-imidazo[4,5-b]pyridin-3-yl)-3H-1,3-benzothiazol-2-one] — 2.5-fold higher, 0.501 nM
- O=C1Cc2cc(-n3c(-c4ccc(F)cc4)nc4ccc(C(F)(F)F)nc43)ccc2N1 [Example 33, 5-[2-(4-Fluorophenyl)-5-(trifluoromethyl)imidazo[4,5-b]pyridin-3-yl]indolin-2-one] — 3.2-fold higher, 0.631 nM
- O=C1Cc2cc(-n3c(-c4ccccc4)nc4cccnc43)ccc2N1 [Example 34, 5-(2-Phenylimidazo[4,5-b]pyridin-3-yl)indolin-2-one] — 63-fold higher, 12.6 nM
- Cc1ccc2nc(-c3ccc(F)cc3)n(-c3ccc4c(c3)CC(=O)N4)c2n1 [Example 35, 5-[2-(4-Fluorophenyl)-5-methyl-imidazo[4,5-b]pyridin-3-yl]indolin-2-one] — 16-fold higher, 3.16 nM
- O=C1Cc2cc(-n3c(-c4ccccc4)nc4ccc(C(F)(F)F)nc43)ccc2N1 [Example 36, 5-[2-Phenyl-5-(trifluoromethyl)imidazo[4,5-b]pyridin-3-yl]indolin-2-one] — 2-fold higher, 0.398 nM
- O=C1Cc2cc(-n3c(-c4ccc(F)cc4)nc4ccc(F)nc43)ccc2N1 [Example 37, 5-[5-Fluoro-2-(4-fluorophenyl)imidazo[4,5-b]pyridin-3-yl]indolin-2-one] — 32-fold higher, 6.31 nM
- CC(C)c1nc2ccc(C(F)(F)F)nc2n1-c1ccc2c(c1)CC(=O)N2 [Example 38, 5-[2-Isopropyl-5-(trifluoromethyl)imidazo[4,5-b]pyridin-3-yl]indolin-2-one] — 5-fold higher, 1 nM
- O=c1[nH]c2ccc(-n3c(C4CCCC4)nc4ccc(C(F)(F)F)nc43)cc2s1 [Example 39, 6-[2-Cyclopentyl-5-(trifluoromethyl)imidazo[4,5-b]pyridin-3-yl]-3H-1,3-benzothiazol-2-one] — the same, 0.2 nM
- O=c1[nH]c2ccc(-n3c(C4CCCCC4)nc4ccc(C(F)(F)F)nc43)cc2s1 [Example 40, 6-[2-Cyclohexyl-5-(trifluoromethyl)imidazo[4,5-b]pyridin-3-yl]-3H-1,3-benzothiazol-2-one] — within 1.5-fold, 0.158 nM
- O=c1[nH]c2ccc(-n3c(C4CC4)nc4ccc(C(F)(F)F)nc43)cc2s1 [Example 41, 6-[2-Cyclopropyl-5-(trifluoromethyl)imidazo[4,5-b]pyridin-3-yl]-3H-1,3-benzothiazol-2-one] — 2-fold higher, 0.398 nM
- O=c1[nH]c2ccc(-n3c(C4CCOCC4)nc4ccc(C(F)(F)F)nc43)cc2s1 [Example 42, 6-[2-Tetrahydropyran-4-yl-5-(trifluoromethyl)imidazo[4,5-b]pyridin-3-yl]-3H-1,3-benzothiazol-2-one] — 200-fold higher, 39.8 nM
- FC(F)(F)c1ccc2nc(C3CC3)n(-c3ccc4[nH]ncc4c3)c2n1 [Example 43, 2-Cyclopropyl-3-(1H-indazol-5-yl)-5-(trifluoromethyl)imidazo[4,5-b]pyridine] — 10-fold higher, 2 nM
- CCc1nc2ccc(C(F)(F)F)nc2n1-c1ccc2[nH]c(=O)sc2c1 [Example 44, 6-[2-Ethyl-5-(trifluoromethyl)imidazo[4,5-b]pyridin-3-yl]-3H-1,3-benzothiazol-2-one] — 2-fold higher, 0.398 nM
- CC(C)c1nc2ccc(C(F)(F)F)nc2n1-c1ccc2[nH]c(=O)sc2c1 [Example 45, 6-[2-Isopropyl-5-(trifluoromethyl)imidazo[4,5-b]pyridin-3-yl]-3H-1,3-benzothiazol-2-one] — 2-fold higher, 0.398 nM
- Cc1nc2ccc(C(F)(F)F)nc2n1-c1ccc2[nH]c(=O)sc2c1 [Example 46, 6-[2-Methyl-5-(trifluoromethyl)imidazo[4,5-b]pyridin-3-yl]-3H-1,3-benzothiazol-2-one] — 32-fold higher, 6.31 nM
- Cc1nc2ccc(C(F)(F)F)nc2n1-c1ccc2c(c1)CC(=O)N2 [Example 47, 5-[2-Methyl-5-(trifluoromethyl)imidazo[4,5-b]pyridin-3-yl]indolin-2-one] — 320-fold higher, 63.1 nM
- O=C1Cc2cc(-n3c(C4CCCCC4)nc4ccc(C(F)(F)F)nc43)ccc2N1 [Example 48, 5-[2-Cyclohexyl-5-(trifluoromethyl)imidazo[4,5-b]pyridin-3-yl]indolin-2-one] — 3.2-fold higher, 0.631 nM
- O=C1Cc2cc(-n3c(C4CCC4)nc4ccc(C(F)(F)F)nc43)ccc2N1 [Example 49, 5-[2-Cyclobutyl-5-(trifluoromethyl)imidazo[4,5-b]pyridin-3-yl]indolin-2-one] — 1.6-fold higher, 0.316 nM
- O=C1Cc2cc(-n3c(C4CCOCC4)nc4ccc(C(F)(F)F)nc43)ccc2N1 [Example 50, 5-[2-Tetrahydropyran-4-yl-5-(trifluoromethyl)imidazo[4,5-b]pyridin-3-yl]indolin-2-one] — 320-fold higher, 63.1 nM
- CC(C)Cc1nc2ccc(C(F)(F)F)nc2n1-c1ccc2c(c1)CC(=O)N2 [Example 51, 5-[2-Isobutyl-5-(trifluoromethyl)imidazo[4,5-b]pyridin-3-yl]indolin-2-one] — 50-fold higher, 10 nM
- O=C1Cc2cc(-n3c(CCC(F)(F)F)nc4ccc(C(F)(F)F)nc43)ccc2N1 [Example 53, 5-[5-(Trifluoromethyl)-2-(3,3,3-trifluoropropyl)imidazo[4,5-b]pyridin-3-yl]indolin-2-one] — 400-fold higher, 79.4 nM
- O=C1Cc2cc(-n3c(CC4CCCC4)nc4ccc(C(F)(F)F)nc43)ccc2N1 [Example 54, 5-[2-(Cyclopentylmethyl)-5-(trifluoromethyl)imidazo[4,5-b]pyridin-3-yl]indolin-2-one] — 32-fold higher, 6.31 nM
- O=C1Cc2cc(-n3c(C4CC4)nc4ccc(C(F)(F)F)nc43)ccc2N1 [Example 55, 5-[2-Cyclopropyl-5-(trifluoromethyl)imidazo[4,5-b]pyridin-3-yl]indolin-2-one] — 40-fold higher, 7.94 nM
- O=C1Cc2cc(-n3c(Cc4cnccn4)nc4ccc(C(F)(F)F)nc43)ccc2N1 [Example 57, 5-[2-(Pyrazin-2-ylmethyl)-5-(trifluoromethyl)imidazo[4,5-b]pyridin-3-yl]indolin-2-one] — 79000-fold higher, 15800 nM
- FC(F)(F)c1ccc2nc(C3CCCC3)n(-c3ccc4[nH]ccc4c3)c2n1 [Example 58, 2-Cyclopentyl-3-(1H-indol-5-yl)-5-(trifluoromethyl)imidazo[4,5-b]pyridine] — 63-fold higher, 12.6 nM
- CC(C)(C)c1nc2ccc(C(F)(F)F)nc2n1-c1ccc2[nH]ccc2c1 [Example 59, 2-tert-Butyl-3-(1H-indol-5-yl)-5-(trifluoromethyl)imidazo[4,5-b]pyridine] — 1300-fold higher, 251 nM
- O=C1Cc2cc(-n3c(C4CCCC4)nc4ccc(C(F)(F)F)nc43)ccc2N1 [Example 60, 5-[2-Cyclopentyl-5-(trifluoromethyl)imidazo[4,5-b]pyridin-3-yl]indolin-2-one] — 10-fold higher, 2 nM
- CC(C)(C)c1nc2ccc(C(F)(F)F)nc2n1-c1ccc2c(c1)CC(=O)N2 [Example 61, 5-[2-tert-Butyl-5-(trifluoromethyl)imidazo[4,5-b]pyridin-3-yl]indolin-2-one] — 63-fold higher, 12.6 nM
- Fc1ccc(-c2nc3c(N4CCOCC4)ccnc3n2-c2ccc3[nH]ncc3c2)cc1 [Example 62, 4-[2-(4-Fluorophenyl)-3-(1H-indazol-5-yl)imidazo[4,5-b]pyridin-7-yl]morpholine] — 32-fold higher, 6.31 nM
- O=C1Cc2cc(-n3c(-c4ccc(F)cc4)nc4c(N5CCOCC5)ccnc43)ccc2N1 [Example 63, 5-[2-(4-Fluorophenyl)-7-morpholino-imidazo[4,5-b]pyridin-3-yl]indolin-2-one] — 16-fold higher, 3.16 nM
- O=c1[nH]c2ccc(-n3c(-c4ccccc4)nc4ccc(N5CCCCC5)nc43)cc2s1 [Example 64, 6-[2-Phenyl-5-(1-piperidyl)imidazo[4,5-b]pyridin-3-yl]-3H-1,3-benzothiazol-2-one] — 25-fold higher, 5.01 nM
